Data published in patent US20230312550A1, “N-(2-(4-CYANOTHIAZOLIDIN-3-YL)-2-OXOETHYL)-QUINOLINE-4-CARBOXAMIDES” (AstraZeneca AB, priority 2020, published 2023).

Key:
[1] = biological target: Prolyl endopeptidase, Prolyl Oligopeptidase (hPREP) (Homo sapiens (Human), UniProt P48147); assay: hPrep inhibition assay; format: biochemical; conditions: hPREP 0.6 nM, Z-Gly-Pro-amino-methylcoumarin 50 μM; read-out: PREP IC50
Method: Compounds were tested in a biochemical inhibition assay using Prolyl endopeptidase, Prolyl Oligopeptidase (hPREP) enzyme at 0.6 nM FAC (R&D Systems, 4308-SE) and the substrate Z-Gly-Pro-amino-methylcoumarin (Bachem, I-1145) at 50 μM FAC. 384 Low volume black plates (Greiner #784076) were used. […] Plates were incubated for 15 min at rt in dark. 4 μL, 100 μM substrate solution (25 mM Tris HCl, 250 mM NaCl, 0.01% Triton X-100, 5 mM Glutathione, pH 7.5) was added to each well. Plates were centrifuged at 1000 rpm and incubated for 20 min at rt in dark. The plates were read on a PHERAstar® reader with excitation 340 nm and emission 460 nm. Data were analyzed in Genedata Screener®. IC50 values were determined by plotting % inhibition versus log compound concentration and using a one site dose response model.

[2] = biological target: hFAP (M39-A757) (Homo sapiens (Human), UniProt Q12884); assay: hFAP binding assay (surface plasmon resonance); conditions: SPR, 20° C., single cycle kinetics
hFAP (M39-A757), sequence (Q12884 39-757): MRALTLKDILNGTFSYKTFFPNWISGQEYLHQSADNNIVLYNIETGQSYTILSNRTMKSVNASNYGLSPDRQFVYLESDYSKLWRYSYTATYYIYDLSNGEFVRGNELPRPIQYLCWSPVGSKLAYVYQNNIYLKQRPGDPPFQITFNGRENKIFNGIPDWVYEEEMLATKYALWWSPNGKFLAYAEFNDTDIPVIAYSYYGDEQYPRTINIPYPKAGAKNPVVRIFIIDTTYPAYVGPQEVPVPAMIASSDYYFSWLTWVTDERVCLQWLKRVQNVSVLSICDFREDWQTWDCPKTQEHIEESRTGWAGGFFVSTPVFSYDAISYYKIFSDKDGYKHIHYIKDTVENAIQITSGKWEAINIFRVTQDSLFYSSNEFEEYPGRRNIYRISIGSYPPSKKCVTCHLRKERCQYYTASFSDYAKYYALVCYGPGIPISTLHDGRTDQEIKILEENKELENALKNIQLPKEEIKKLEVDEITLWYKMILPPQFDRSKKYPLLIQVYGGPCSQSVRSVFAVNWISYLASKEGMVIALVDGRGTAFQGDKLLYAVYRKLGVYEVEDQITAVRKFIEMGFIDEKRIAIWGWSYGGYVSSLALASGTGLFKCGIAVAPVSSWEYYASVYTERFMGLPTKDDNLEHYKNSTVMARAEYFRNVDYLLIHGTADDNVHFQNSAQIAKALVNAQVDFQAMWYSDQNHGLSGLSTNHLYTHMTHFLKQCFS
Method: Compounds were tested in a direct binding assay using 8K surface plasmon resonance biosensor (GE Healthcare) at 20° C. Immobilization of hFAP (M39-A757) on a CMD200M sensor chip (Xantec) was performed using standard amine coupling procedure in immobilization buffer (10 mM HEPES, 150 mM NaCl, 0.05% Tween20, pH 7.4). The surface was washed with 10 mM NaOH, 1M NaCl before being activated with EDC/NHS (GE Healthcare), followed by immobilization of hFAP (in 10 mM Acetate pH 5.0). Finally, the surface was deactivated by ethanolamine. Immobilization levels of hFAP were around 4000-6000 RU. The reference spot was treated as described, omitting the injection of hFAP. Compound concentration series were injected over the immobilized protein in increasing concentrations (2-500 nM) using single cycle kinetics in running buffer (20 mM TRIS, 150 mM NaCl, 0.05% Tween20, 1% DMSO, pH 7.4). Interaction models were fitted globally to the experimental traces, enabling determination of kon, koff and Kd.

Prolyl endopeptidase, Prolyl Oligopeptidase (hPREP), sequence (P48147 whole entry): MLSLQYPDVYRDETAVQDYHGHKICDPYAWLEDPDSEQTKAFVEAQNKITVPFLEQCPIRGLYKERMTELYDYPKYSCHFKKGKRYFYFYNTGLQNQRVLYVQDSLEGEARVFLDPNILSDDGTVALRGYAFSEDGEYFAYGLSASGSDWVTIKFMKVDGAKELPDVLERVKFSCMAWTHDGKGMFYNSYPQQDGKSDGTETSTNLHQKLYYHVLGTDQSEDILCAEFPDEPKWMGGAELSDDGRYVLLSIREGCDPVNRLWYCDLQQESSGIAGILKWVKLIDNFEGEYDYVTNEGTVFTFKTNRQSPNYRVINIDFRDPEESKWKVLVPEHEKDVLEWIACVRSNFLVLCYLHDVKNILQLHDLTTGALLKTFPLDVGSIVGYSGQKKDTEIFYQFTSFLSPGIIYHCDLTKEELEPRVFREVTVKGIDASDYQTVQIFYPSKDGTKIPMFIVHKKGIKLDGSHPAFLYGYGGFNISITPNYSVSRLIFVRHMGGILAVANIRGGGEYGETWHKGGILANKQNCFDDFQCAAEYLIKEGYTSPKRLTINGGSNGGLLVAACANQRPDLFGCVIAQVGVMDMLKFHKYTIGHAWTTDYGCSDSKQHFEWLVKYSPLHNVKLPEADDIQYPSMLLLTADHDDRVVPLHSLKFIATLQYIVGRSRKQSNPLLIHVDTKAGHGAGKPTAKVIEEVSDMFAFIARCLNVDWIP

`Cc1ccc2c(C(=O)NCC(=O)N3CSC[C@H]3C#N)ccnc2c1` [B, (R)—N-(2-(4-cyanothiazolidin-3-yl)-2-oxoethyl)-7-methylquinoline-4-carboxamide, reference compound] showed an IC50 [1] of 5.2 nM.

With `N#C[C@@H]1CSCN1C(=O)CNC(=O)c1ccnc2ccc(N3CCCC3=O)cc12` [Example 11, (R)—N-(2-(4-Cyanothiazolidin-3-yl)-2-oxoethyl)-6-(2-oxopyrrolidin-1-yl)-quinoline-4-carboxamide] the IC50 [1] was 140 nM.

For `CC1(C)CN(c2ccc3nccc(C(=O)NCC(=O)N4CSC[C@H]4C#N)c3c2)C1` [Example 22, (R)—N-(2-(4-Cyanothiazolidin-3-yl)-2-oxoethyl)-6-(3,3-dimethylazetidin-1-yl)quinoline-4-carboxamide], the “hFAP Binding assay k(off)” value [2] was 0.000047 s⁻¹, the “hFAP Binding assay k(on)” value [2] was 940000 M⁻¹ s⁻¹ and the IC50 [1] was 470 nM.

`N#C[C@@H]1CSCN1C(=O)CNC(=O)c1ccnc2ccc(N3CCC(F)(F)C3)cc12` [Example 47, (R)—N-(2-(4-Cyanothiazolidin-3-yl)-2-oxoethyl)-6-(3,3-difluoropyrrolidin-1-yl)quinoline-4-carboxamide] was tested, and the “hFAP Binding assay k(off)” value [2] was 0.00016 s⁻¹, the “hFAP Binding assay k(on)” value [2] was 5600000 M⁻¹ s⁻¹ and the IC50 [1] was 270 nM.

With `C[C@H]1CN(c2ccc3nccc(C(=O)NCC(=O)N4CSC[C@H]4C#N)c3c2)C[C@H](C)O1` [Example 78, N-(2-((R)-4-Cyanothiazolidin-3-yl)-2-oxoethyl)-6-((2S,6S)-2,6-dimethyl-morpholino)quinoline-4-carboxamide] the “hFAP Binding assay k(off)” value [2] was 0.00010 s⁻¹, the “hFAP Binding assay k(on)” value [2] was 880000 M⁻¹ s⁻¹ and the IC50 [1] was 890 nM.

In the case of `C[C@H]1OCCN(c2ccc3nccc(C(=O)NCC(=O)N4CSC[C@H]4C#N)c3c2)[C@H]1C` [Example 81, N-(2-((R)-4-Cyanothiazolidin-3-yl)-2-oxoethyl)-6-((2R,3S)-2,3-dimethyl-morpholino)quinoline-4-carboxamide], the “hFAP Binding assay k(off)” value [2] is reported as 0.000063 s⁻¹, the “hFAP Binding assay k(on)” value [2] is reported as 1400000 M⁻¹ s⁻¹ and the IC50 [1] is reported as 1700 nM.

With `C[C@@H]1[C@@H](C)OCCN1c1ccc2nccc(C(=O)NCC(=O)N3CSC[C@H]3C#N)c2c1` [Example 83, N-(2-((R)-4-Cyanothiazolidin-3-yl)-2-oxoethyl)-6-((2R,3R)-2,3-dimethyl-morpholino)quinoline-4-carboxamide] the “hFAP Binding assay k(off)” value [2] was 0.000064 s⁻¹, the “hFAP Binding assay k(on)” value [2] was 1700000 M⁻¹ s⁻¹ and the IC50 [1] was 640 nM.

With `C[C@@H]1CN(c2ccc3nccc(C(=O)NCC(=O)N4CSC[C@H]4C#N)c3c2)[C@H](C)CO1` [Example 87, N-(2-((R)-4-Cyanothiazolidin-3-yl)-2-oxoethyl)-6-((2R,5R)-2,5-dimethyl-morpholino)quinoline-4-carboxamide] the “hFAP Binding assay k(off)” value [2] was 0.00011 s⁻¹, the “hFAP Binding assay k(on)” value [2] was 2800000 M⁻¹ s⁻¹ and the IC50 [1] was 760 nM.

With `COC[C@H]1COCCN1c1ccc2nccc(C(=O)NCC(=O)N3CSC[C@H]3C#N)c2c1` [Example 89, N-(2-((R)-4-Cyanothiazolidin-3-yl)-2-oxoethyl)-6-((S)-3-(methoxymethyl)-morpholino)quinoline-4-carboxamide] the “hFAP Binding assay k(off)” value [2] was 0.00015 s⁻¹, the “hFAP Binding assay k(on)” value [2] was 3600000 M⁻¹ s⁻¹ and the IC50 [1] was 1300 nM.

For `N#C[C@@H]1CSCN1C(=O)CNC(=O)c1ccnc2ccc(N3CCCOCC3)cc12` [Example 91, (R)—N-(2-(4-Cyanothiazolidin-3-yl)-2-oxoethyl)-6-(1,4-oxazepan-4-yl)-quinoline-4-carboxamide], the “hFAP Binding assay k(off)” value [2] was 0.00021 s⁻¹, the “hFAP Binding assay k(on)” value [2] was 3200000 M⁻¹ s⁻¹ and the IC50 [1] was 260 nM.

With `C[C@H]1COCCN1c1ccc2nccc(C(=O)NCC(=O)N3CSC[C@H]3C#N)c2c1` [Example 102, N-(2-((R)-4-Cyanothiazolidin-3-yl)-2-oxoethyl)-6-((S)-3-methyl-morpholino)quinoline-4-carboxamide] the “hFAP Binding assay k(off)” value [2] was 0.000080 s⁻¹, the “hFAP Binding assay k(on)” value [2] was 2000000 M⁻¹ s⁻¹ and the IC50 [1] was 680 nM.

With `CC1(C)COCCN1c1ccc2nccc(C(=O)NCC(=O)N3CSC[C@H]3C#N)c2c1` [Example 107, (R)—N-(2-(4-Cyanothiazolidin-3-yl)-2-oxoethyl)-6-(3,3-dimethyl-morpholino)quinoline-4-carboxamide] the “hFAP Binding assay k(off)” value [2] was 0.00016 s⁻¹, the “hFAP Binding assay k(on)” value [2] was 1900000 M⁻¹ s⁻¹ and the IC50 [1] was 1100 nM.

`C[C@@H]1COCCN1c1ccc2nccc(C(=O)NCC(=O)N3CSC[C@H]3C#N)c2c1` [Example 108, N-(2-((R)-4-Cyanothiazolidin-3-yl)-2-oxoethyl)-6-((R)-3-methyl-morpholino)quinoline-4-carboxamide] was tested, and the “hFAP Binding assay k(off)” value [2] was 0.000050 s⁻¹, the “hFAP Binding assay k(on)” value [2] was 1400000 M⁻¹ s⁻¹ and the IC50 [1] was 1000 nM.

In the case of `Cc1cc(C(=O)NCC(=O)N2CSC[C@H]2C#N)c2cc(N3CCOCC3)ccc2n1` [Example 109, (R)—N-(2-(4-Cyanothiazolidin-3-yl)-2-oxoethyl)-2-methyl-6-morpholino-quinoline-4-carboxamide], the “hFAP Binding assay k(off)” value [2] is reported as 0.0099 s⁻¹ and the “hFAP Binding assay k(on)” value [2] is reported as 1200000 M⁻¹ s⁻¹.

For `Cn1cc(-c2ccc3nccc(C(=O)NCC(=O)N4CSC[C@H]4C#N)c3c2)cn1` [Example 129, (R)—N-(2-(4-Cyanothiazolidin-3-yl)-2-oxoethyl)-6-(1-methyl-1H-pyrazol-4-yl)quinoline-4-carboxamide], the “hFAP Binding assay k(off)” value [2] was 0.00012 s⁻¹, the “hFAP Binding assay k(on)” value [2] was 1400000 M⁻¹ s⁻¹ and the IC50 [1] was 330 nM.

In the case of `CCC1(F)CN(c2ccc3nccc(C(=O)NCC(=O)N4CSC[C@H]4C#N)c3c2)C1` [Example 138, (R)—N-(2-(4-Cyanothiazolidin-3-yl)-2-oxoethyl)-6-(3-ethyl-3-fluoro-azetidin-1-yl)quinoline-4-carboxamide], the “hFAP Binding assay k(off)” value [2] is reported as 0.000075 s⁻¹, the “hFAP Binding assay k(on)” value [2] is reported as 2500000 M⁻¹ s⁻¹ and the IC50 [1] is reported as 470 nM.

`CCOC1(C)CN(c2ccc3nccc(C(=O)NCC(=O)N4CSC[C@H]4C#N)c3c2)C1` [Example 152, (R)—N-(2-(4-Cyanothiazolidin-3-yl)-2-oxoethyl)-6-(3-ethoxy-3-methyl-azetidin-1-yl)quinoline-4-carboxamide] was tested, and the “hFAP Binding assay k(off)” value [2] was 0.000014 s⁻¹, the “hFAP Binding assay k(on)” value [2] was 1000000 M⁻¹ s⁻¹ and the IC50 [1] was 690 nM.

With `N#C[C@@H]1CSCN1C(=O)CNC(=O)c1ccnc2ccc(N3CC4(CCO4)C3)cc12` [Example 153, (R)—N-(2-(4-Cyanothiazolidin-3-yl)-2-oxoethyl)-6-(1-oxa-6-azaspiro[3.3]heptan-6-yl)quinoline-4-carboxamide] the “hFAP Binding assay k(off)” value [2] was 0.000085 s⁻¹, the “hFAP Binding assay k(on)” value [2] was 5300000 M⁻¹ s⁻¹ and the IC50 [1] was 540 nM.

With `CC(=O)NCC1(C)CN(c2ccc3nccc(C(=O)NCC(=O)N4CSC[C@H]4C#N)c3c2)C1` [Example 181, (R)-6-(3-(Acetamidomethyl)-3-methylazetidin-1-yl)-N-(2-(4-cyano-thiazolidin-3-yl)-2-oxoethyl)quinoline-4-carboxamide] the “hFAP Binding assay k(off)” value [2] was 0.000027 s⁻¹, the “hFAP Binding assay k(on)” value [2] was 180000 M⁻¹ s⁻¹ and the IC50 [1] was 1600 nM.

With `N#C[C@@H]1CSCN1C(=O)CNC(=O)c1ccnc2ccc(N3CC[C@@H](CO)C3)cc12` [Example 220, N-(2-((R)-4-Cyanothiazolidin-3-yl)-2-oxoethyl)-6-((R)-3-(hydroxymethyl)-pyrrolidin-1-yl)quinoline-4-carboxamide] the “hFAP Binding assay k(off)” value [2] was 0.000050 s⁻¹, the “hFAP Binding assay k(on)” value [2] was 1600000 M⁻¹ s⁻¹ and the IC50 [1] was 390 nM.
